Data as given in patent US20120253078A1, “Agent for Improving Carcass Performance in Finishing Hogs” (IGENE BIOTECHNOLOGY, INC., priority 2007, published 2012).

How the values were obtained:
[1] = cited from earlier work
[2] = Carcass characteristics and loin eye color of finishing pigs fed astaxanthin; assay type: in vivo, pigs (barrows, PIC TR4×C22 cross); conditions: for Loin eye area / Loin eye color CIE L* / Loin eye color CIE a* / Loin eye color CIE b*: 10th rib; for Loin eye area / Backfat-1st rib / Backfat-10th rib / Backfat-Last Lumbar / Backfat-Last rib: 24-h postmortem; for Loin eye color CIE L* / Loin eye color CIE a* / Loin eye color CIE b*: 30 minutes bloom time
Description: (§1) Forty-eight barrows (PIC, TR4×C22 cross) averaging 215 lb were used in the study. Pigs were blocked by weight and randomly allotted to one of the four dietary treatments with two pigs per pen and six pens per treatment. Experimental diets were provided in meal form and astaxanthin (0, 5, 10 and 20 ppm) was added to the control diet at the expense of corn starch to achieve the dietary treatments (Table 1). In Table 1, CP is crude protein; P is […]; ME is metabolizable energy; and TID is true ileal digestible. Pigs and feeders were weighed on day (d) 0, 7, 14, 21 and 26 to determine the growth performance criteria of average daily gain (ADG), average daily food intake (ADFI), and feed conversion (F/G).
On d 27, one pig per pen was transported to the KSU meats lab for humane slaughter and collection of carcass data. Hot carcass weight was collected immediately after evisceration. First-rib, tenth-rib, last-rib, and last-lumbar backfat depth, as well as loin eye area at the 10th-rib, were collected from the right half of each carcass 24-h postmortem. Additionally, each carcass was evaluated for loin muscle color at the 10th-rib with a Hunter MiniScan instrument to measure CIE L*, a* and b*, known color parameters relating to brightness, red-to-green coloration and yellow-to-blue coloration, as known in the art. That was performed after 30 minutes of bloom time, the time to oxygenate myoglobin thereby obtaining maximal pink or red coloration, for each loin muscle surface.
(§2) Data were analyzed as a randomized complete block design using the PROC MIXED procedure of SAS with pen as the experimental unit. Linear and quadratic polynomial contrasts were used to determine the effect of increasing astaxanthin.
(§3) The source of natural astaxanthin used in the example was Phaffia rhodozyma which is commercially available under the trade name Aquasta® containing 10,000 ppm astaxanthin, by weight.

[3] = Growth performance of finishing pigs fed increasing levels of astaxanthin (d 0 to 26); assay type: in vivo, pigs (barrows, PIC TR4×C22 cross); conditions: for ADFI / ADG / F/G / Final Wt.: d 0 to 26
Description: Procedures used in the experiment were approved by the Kansas State University Animal Care and Use Committee. The project was conducted at the KSU Swine Teaching and Research Farm. Pigs were housed in an environmentally regulated finishing building with pens over a totally slatted floor that provided approximately 8 ft^2 per pig. Each pen was equipped with a dry self-feeder and one nipple waterer, thereby providing ad libitum access to feed and water. The facility was a mechanically ventilated room with a pull-plug manure storage pit.
as §1, §2, §3

[4] = 5 ppm astaxanthin in the feed; cited from earlier work
[5] = 5 ppm astaxanthin in diet for 26 d
[6] = 5 ppm astaxanthin in diet for 26 d before slaughter
[7] = 10 ppm astaxanthin in diet for 26 d
[8] = 10 ppm astaxanthin in diet for 26 d before slaughter
[9] = 20 ppm astaxanthin in diet for 26 d
[10] = 20 ppm astaxanthin in diet for 26 d before slaughter
[11] = astaxanthin 5, 10, 20 ppm in diet

In the case of `CC1=C(/C=C/C(C)=C/C=C/C(C)=C/C=C/C=C(C)/C=C/C=C(C)/C=C/C2=C(C)C(=O)C(O)CC2(C)C)C(C)(C)CC(O)C1=O` (stereo not drawn) [Astaxanthin, 3,3′-dihydroxy-β,β-carotene-4,4′dione], the “effect on production performance” value ([1]; 0, 1.5 and 3.0 ppm astaxanthin in the diet) is listed as “no significant effect”, the “effect on dressing percentage, backfat thickness and loin muscle area” value ([1]; with increasing dietary astaxanthin level (0, 1.5, 3.0 ppm)) is listed as “linear effect” and the “percent fat-free lean (PFFL), comparison of doses” value ([2]; 5 or 10 ppm astaxanthin versus 0 or 20 ppm, p<0.10) is listed as “greatest percent fat-free lean”. The Loin eye area [2, 5] was 7.72 sq. in, the “Loin eye color CIE L*” value [2, 5] was 55.3 and the “Loin eye color CIE a*” value [2, 5] was 10.1. The “Loin eye color CIE b*” value [2, 5] was 14.8, the Backfat-1st rib [2, 5] was 1.40 in and the Backfat-10th rib [2, 5] was 0.65 in. The “Backfat-Last Lumbar” value [2, 5] was 0.60 in, the Backfat-Last rib [2, 5] was 0.65 in and the “Fat-Free Lean” value [2, 6] was 55.6%. The “Hot Carcass Wt.” value [2, 6] was 192 lb, the “Live Wt.” value [2, 6] was 273 lb and the “Standardized Fat-Free Lean” value [2, 6] was 107 lb. For the same molecule, the Yield [2, 6] was 70.6%, the Loin eye area [2, 7] was 7.58 sq. in and the “Loin eye color CIE L*” value [2, 7] was 58.9. For the same molecule, the “Loin eye color CIE a*” value [2, 7] was 8.2, the “Loin eye color CIE b*” value [2, 7] was 14.4 and the Backfat-1st rib [2, 7] was 1.33 in. The Backfat-10th rib [2, 7] was 0.65 in, the “Backfat-Last Lumbar” value [2, 7] was 0.56 in and the Backfat-Last rib [2, 7] was 0.67 in. The “Fat-Free Lean” value [2, 8] was 55.5%, the “Hot Carcass Wt.” value [2, 8] was 191 lb and the “Live Wt.” value [2, 8] was 271 lb. For the same molecule, the “Standardized Fat-Free Lean” value [2, 8] was 106 lb, the Yield [2, 8] was 70.6% and the Loin eye area [2, 9] was 7.28 sq. in. For the same molecule, the “Loin eye color CIE L*” value [2, 9] was 56.2, the “Loin eye color CIE a*” value [2, 9] was 10.3 and the “Loin eye color CIE b*” value [2, 9] was 15.1. The Backfat-1st rib [2, 9] was 1.41 in, the Backfat-10th rib [2, 9] was 0.70 in and the “Backfat-Last Lumbar” value [2, 9] was 0.57 in. The Backfat-Last rib [2, 9] was 0.64 in, the “Fat-Free Lean” value [2, 10] was 54.5% and the “Hot Carcass Wt.” value [2, 10] was 189 lb. The “Live Wt.” value [2, 10] was 270 lb, the “Standardized Fat-Free Lean” value [2, 10] was 103 lb and the Yield [2, 10] was 70.3%. The “carcass traits and meat quality, benefit over lower doses” value ([2]; 20 ppm astaxanthin in the diet, optimum 5 to 10 ppm) was “no additional benefit”, the “backfat depth measured at the first rib, tenth rib and last rib, versus control” value ([2]; pigs fed astaxanthin, p<0.10) was “less backfat depth” and the ADFI ([3]; 5 ppm astaxanthin in diet) was 6.76 lb. For the same molecule, the ADG ([3]; 5 ppm astaxanthin in diet) was 2.23 lb, the F/G ([3]; 5 ppm astaxanthin in diet) was 3.05 and the “Final Wt.” value ([3]; 5 ppm astaxanthin in diet) was 273 lb. For the same molecule, the ADFI ([3]; 10 ppm astaxanthin in diet) was 6.24 lb, the ADG ([3]; 10 ppm astaxanthin in diet) was 2.03 lb and the F/G ([3]; 10 ppm astaxanthin in diet) was 3.08. For the same molecule, the “Final Wt.” value ([3]; 10 ppm astaxanthin in diet) was 268 lb, the ADFI ([3]; 20 ppm astaxanthin in diet) was 6.20 lb and the ADG ([3]; 20 ppm astaxanthin in diet) was 1.99 lb. The F/G ([3]; 20 ppm astaxanthin in diet) was 3.16, the “Final Wt.” value ([3]; 20 ppm astaxanthin in diet) was 267 lb and the “ADG versus control pigs” value [3, 11] was “not significantly different”. For the same molecule, the “F/G versus control pigs” value [3, 11] was “not significantly different”, the “average daily feed intake, trend” value ([3]; with increasing level of astaxanthin (0, 5, 10, 20 ppm)) was “tended to decrease” and the “performance of sows (stillborn in the litter, parity)” value [4] was “improved performance of sows”.
